Experimental findings from patent US11382918B2, “Methods for treating Huntington's Disease” (PTC Therapeutics, Inc., priority 2017, dated 2022) are described below.

Where a name gives a salt, the structure may show the parent alone.

One may read the IC50 as the concentration needed to halve the response being measured. Low readings indicate higher potency, high ones lower potency.

The test system of the test is Endogenous Huntingtin Protein (HTT). Put plainly: Endogenous Huntingtin Protein Assay (ELISA-based MSD electrochemiluminescence). It is filed as cell-based. Conditions: Table 1. In outline:
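MSD electrochemiluminescence sandwich ELISA for endogenous HTT: sample lysates captured overnight at 4 °C on MW1 (expanded polyglutamine) or MAB2166 antibody. Detection used rabbit monoclonal #5656S, then goat anti-rabbit SULFO-TAG antibody, each 1 h at room temperature.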
(In an ELISA, binding on a coated surface is turned into a signal by an enzyme label.)
As to `Cc1cc(N2CCN[C@@H](C)C2)cn2c(=O)cc(-c3ccc4nn(C)cc4c3)nc12` [compound 756, 9-methyl-2-(2-methyl-2H-indazol-5-yl)-7-[(3S)-3-methylpiperazin-1-yl]-4H-pyrido[1,2-a]pyrimidin-4-one], the 50% inhibitory concentration (IC50) lay in the range of 0.1 to 0.5 µM. The result for `CCc1nc(C)cn2nc(-c3cc(=O)n4cc(C5=CCNCC5)ccc4n3)cc12` [compound 763, 2-(4-ethyl-6-methylpyrazolo[1,5-a]pyrazin-2-yl)-7-(1,2,3,6-tetrahydropyridin-4-yl)-4H-pyrido[1,2-a]pyrimidin-4-one] reads 0.1 to 0.5 µM; that for `CCCc1nc(C)cn2nc(-c3cc(=O)n4cc(C5CCNCC5)ccc4n3)cc12` [compound 766, 2-(6-methyl-4-propylpyrazolo[1,5-a]pyrazin-2-yl)-7-(piperidin-4-yl)-4H-pyrido[1,2-a]pyrimidin-4-one], 0.5 to 1 µM. For `Cc1cc(-c2cc(=O)n3cc(N4CCN(C)CC4)ccc3n2)cc2cn(C)nc12` [compound 768, 2-(2,7-dimethyl-2H-indazol-5-yl)-7-(4-methylpiperazin-1-yl)-4H-pyrido[1,2-a]pyrimidin-4-one] the value was 1 to 3 µM; for `Cc1cn2nc(-c3cc(=O)n4cc(N5CC[C@@H](CN(C)C)C5)ccc4n3)cc2c(C)n1` [compound 770, 7-{(3S)-3-[(dimethylamino)methyl]pyrrolidin-1-yl}-2-(4,6-dimethylpyrazolo[1,5-a]pyrazin-2-yl)-4H-pyrido[1,2-a]pyrimidin-4-one], 3 to 33 µM; for `CCc1nc(C)cn2nc(-c3cc(=O)n4cc(C5CCNCC5)cc(C)c4n3)cc12` [compound 771, 2-(4-ethyl-6-methylpyrazolo[1,5-a]pyrazin-2-yl)-9-methyl-7-(piperidin-4-yl)-4H-pyrido[1,2-a]pyrimidin-4-one], 0.5 to 1 µM. In turn, `CCc1nc(C)cn2nc(-c3cc(=O)n4cc(C5=CCNCC5)cc(C)c4n3)cc12` [compound 773, 2-(4-ethyl-6-methylpyrazolo[1,5-a]pyrazin-2-yl)-9-methyl-7-(1,2,3,6-tetrahydropyridin-4-yl)-4H-pyrido[1,2-a]pyrimidin-4-one] registered a 50% inhibitory concentration (IC50) of 3 to 33 µM. The result for `CCc1nc(C)cn2nc(-c3cc(=O)n4cc(C5CCN(C)CC5)cc(C)c4n3)cc12` [compound 774, 2-(4-ethyl-6-methylpyrazolo[1,5-a]pyrazin-2-yl)-9-methyl-7-(1-methylpiperidin-4-yl)-4H-pyrido[1,2-a]pyrimidin-4-one] reads 3 to 33 µM; that for `Cc1cc(-c2cc(=O)n3cc(N4CCNCC4)ccc3n2)cc2cnn(C)c12` [compound 776, 2-(1,7-dimethyl-1H-indazol-5-yl)-7-(piperazin-1-yl)-4H-pyrido[1,2-a]pyrimidin-4-one], 3 to 33 µM. For `Cc1cc(-c2cc(=O)n3cc(N4CCN[C@@H](C)C4)ccc3n2)cc2cnn(C)c12` [compound 777, 2-(1,7-dimethyl-1H-indazol-5-yl)-7-[(3S)-3-methylpiperazin-1-yl]-4H-pyrido[1,2-a]pyrimidin-4-one] the value was 3 to 33 µM.

The compound `Cc1cn2nc(-c3cc(=O)n4cc(N5CC(CN(C)C)C5)ccc4n3)cc2c(C)n1` [compound 780, 7-{3-[(dimethylamino)methyl]azetidin-1-yl}-2-(4,6-dimethylpyrazolo[1,5-a]pyrazin-2-yl)-4H-pyrido[1,2-a]pyrimidin-4-one] gave a half-inhibitory concentration (IC50) of 1 to 3 µM. The result for `CCc1nc(C)cn2nc(-c3cc(=O)n4cc(N5CCN[C@@H](C)C5)cc(C)c4n3)cc12` [compound 787, 2-(4-ethyl-6-methylpyrazolo[1,5-a]pyrazin-2-yl)-9-methyl-7-[(3S)-3-methylpiperazin-1-yl]-4H-pyrido[1,2-a]pyrimidin-4-one] reads 3 to 33 µM. Take `Cc1nc(C2=CCNCC2)cn2c(=O)cc(-c3ccc4nn(C)cc4c3)nc12` [compound 791, 9-methyl-2-(2-methyl-2H-indazol-5-yl)-7-(1,2,3,6-tetrahydropyridin-4-yl)-4H-pyrazino[1,2-a]pyrimidin-4-one]: the IC50 is less than 0.1 µM. The result for `CCc1nc(C)cn2nc(-c3cc(=O)n4cc(C5CCN(CCO)CC5)cc(C)c4n3)cc12` [compound 793, 2-(4-ethyl-6-methylpyrazolo[1,5-a]pyrazin-2-yl)-7-[1-(2-hydroxyethyl)piperidin-4-yl]-9-methyl-4H-pyrido[1,2-a]pyrimidin-4-one] reads 1 to 3 µM; that for `Cc1nc(C2CCNCC2)cn2c(=O)cc(-c3ccc4nn(C)cc4c3)nc12` [compound 796, 9-methyl-2-(2-methyl-2H-indazol-5-yl)-7-(piperidin-4-yl)-4H-pyrazino[1,2-a]pyrimidin-4-one], less than 0.1 µM. For `Cc1ccc2nc(-c3cc(=O)n4cc(N5CCN(C)CC5)ccc4n3)cn2c1` [compound 836, 2-(6-methylimidazo[1,2-a]pyridin-2-yl)-7-(4-methylpiperazin-1-yl)-4H-pyrido[1,2-a]pyrimidin-4-one] the value was 3 to 33 µM; for `Cc1cc(=O)n2cc(-c3cc(=O)n4cc(N5CCNCC5)ccc4n3)ccc2n1` [compound 837, 2′-methyl-7-(piperazin-1-yl)-4H,4′H-2,7′-bipyrido[1,2-a]pyrimidine-4,4′-dione], 3 to 33 µM; for `O=c1cc(-c2ccc(OC(F)F)c(F)c2)nc2ccc(N3CCNCC3)cn12` [compound 838, 2-[4-(difluoromethoxy)-3-fluorophenyl]-7-(piperazin-1-yl)-4H-pyrido[1,2-a]pyrimidin-4-one], 3 to 33 µM. For `O=c1cc(-c2cnc(O)c(F)c2)nc2ccc(N3CCNCC3)cn12` [compound 839, 2-(5-fluoro-6-hydroxypyridin-3-yl)-7-(piperazin-1-yl)-4H-pyrido[1,2-a]pyrimidin-4-one] the value was 3 to 33 µM; for `Cc1nc(O)c2cc(-c3cc(=O)n4cc(N5CCNCC5)ccc4n3)ccc2n1` [compound 840, 2-(4-hydroxy-2-methylquinazolin-6-yl)-7-(piperazin-1-yl)-4H-pyrido[1,2-a]pyrimidin-4-one], 3 to 33 µM. Compound `CN1CCC(c2ccc3nc(-c4ccc(N(C)C)nc4)cc(=O)n3c2)CC1` [compound 841, 2-[6-(dimethylamino)pyridin-3-yl]-7-(1-methylpiperidin-4-yl)-4H-pyrido[1,2-a]pyrimidin-4-one] yielded an IC50 of 3 to 33 µM. The result for `CCN1CC=C(c2cn3c(=O)cc(-c4ccc5nc(C)cn5n4)nc3cn2)CC1` [compound 842, 7-(1-ethyl-1,2,3,6-tetrahydropyridin-4-yl)-2-(2-methylimidazo[1,2-b]pyridazin-6-yl)-4H-pyrazino[1,2-a]pyrimidin-4-one] reads 3 to 33 µM. The result for `Cc1cn2nc(-c3cc(=O)n4cc(N5CCN(C)CC5)ccc4n3)cc2c(N(C)C)n1` [compound 843, 2-[4-(dimethylamino)-6-methylpyrazolo[1,5-a]pyrazin-2-yl]-7-(4-methylpiperazin-1-yl)-4H-pyrido[1,2-a]pyrimidin-4-one] reads 3 to 33 µM; that for `Cc1cn2nc(-c3cc(=O)n4cc(N5CCNC(C(F)(F)F)C5)ccc4n3)cc2c(C)n1` (centres unmarked) [compound 844, 2-(4,6-dimethylpyrazolo[1,5-a]pyrazin-2-yl)-7-[3-(trifluoromethyl)piperazin-1-yl]-4H-pyrido[1,2-a]pyrimidin-4-one], 3 to 33 µM; that for `CCN1CCN(c2ccc3nc(-c4cc(C)c5c(cnn5C)c4)cc(=O)n3c2)CC1` [compound 845, 2-(1,7-dimethyl-1H-indazol-5-yl)-7-(4-ethylpiperazin-1-yl)-4H-pyrido[1,2-a]pyrimidin-4-one], 3 to 33 µM.

Take `Cc1cc(-c2cc(=O)n3cc(N4CCN(C)CC4)ccc3n2)cc2cnn(C)c12` [compound 846, 2-(1,7-dimethyl-1H-indazol-5-yl)-7-(4-methylpiperazin-1-yl)-4H-pyrido[1,2-a]pyrimidin-4-one]: the IC50 is 3 to 33 µM. The result for `COc1cc(O)ccc1-c1cc(=O)n2cc(C3=CCN(C(=O)OC(C)(C)C)CC3)ccc2n1` [compound 847, tert-butyl 4-[2-(4-hydroxy-2-methoxyphenyl)-4-oxo-4H-pyrido[1,2-a]pyrimidin-7-yl]-3,6-dihydropyridine-1(2H)-carboxylate] reads 3 to 33 µM. The result for `COc1cc(OS(=O)(=O)C(F)(F)F)ccc1-c1cc(=O)n2cc(C3=CCN(C(=O)OC(C)(C)C)CC3)ccc2n1` [compound 848, tert-butyl 4-[2-(2-methoxy-4-{[(trifluoromethyl)sulfonyl]oxy}phenyl)-4-oxo-4H-pyrido[1,2-a]pyrimidin-7-yl]-3,6-dihydropyridine-1(2H)-carboxylate] reads 3 to 33 µM; that for `COc1cc(-c2ccnc(O)c2)ccc1-c1cc(=O)n2cc(C3=CCNCC3)ccc2n1` [compound 849, 2-[4-(2-hydroxypyridin-4-yl)-2-methoxyphenyl]-7-(1,2,3,6-tetrahydropyridin-4-yl)-4H-pyrido[1,2-a]pyrimidin-4-one hydrochloride (1:1)], 3 to 33 µM.

In the case of `O=c1cc(-c2ccc(-c3ccnc(O)c3)cc2O)nc2ccc(C3=CCNCC3)cn12` [compound 850, 2-[2-hydroxy-4-(2-hydroxypyridin-4-yl)phenyl]-7-(1,2,3,6-tetrahydropyridin-4-yl)-4H-pyrido[1,2-a]pyrimidin-4-one trifluoroacetate (1:1)], the IC50 is 3 to 33 µM.

In turn, `CCc1nc(C)cn2nc(-c3cc(=O)n4cc(N(C)C5CC(C)(C)NC(C)(C)C5)cc(C)c4n3)cc12` [compound 851, 2-(4-ethyl-6-methylpyrazolo[1,5-a]pyrazin-2-yl)-9-methyl-7-[methyl(2,2,6,6-tetramethylpiperidin-4-yl)amino]-4H-pyrido[1,2-a]pyrimidin-4-one] had an IC50 of 3 to 33 µM. The result for `Cc1cn2nc(-c3cc(=O)n4cc(N(C)C5CC(C)(C)NC(C)(C)C5)cc(C)c4n3)cc2c(C)n1` [compound 852, 2-(4,6-dimethylpyrazolo[1,5-a]pyrazin-2-yl)-9-methyl-7-[methyl(2,2,6,6-tetramethylpiperidin-4-yl)amino]-4H-pyrido[1,2-a]pyrimidin-4-one] reads 3 to 33 µM.
